Reference: ChEMBL document CHEMBL1201861, “Genomics of Drug Sensitity in Cancer screening data, Wellcome Trust Sanger Institute”

Assays:
Test in all cases: cells
DMS-273 = type: functional, cell-based; details: Homo sapiens
Description: SANGER: Inhibition of human DMS-273 cell growth in a cell viability assay.

DOK = type: functional, cell-based; details: Homo sapiens
Description: SANGER: Inhibition of human DOK cell growth in a cell viability assay.

DoTc2-4510 = type: functional, cell-based; details: Homo sapiens
EC-GI-10 = type: functional, cell-based, Homo sapiens; details: Homo sapiens, EC-GI-10
Description: SANGER: Inhibition of human EC-GI-10 cell growth in a cell viability assay.

EFO-27 = type: functional, cell-based; details: Homo sapiens
Description: SANGER: Inhibition of human EFO-27 cell growth in a cell viability assay.

G-361 = type: functional, cell-based; details: Homo sapiens
G-402 = type: functional, cell-based; details: Homo sapiens
Description: SANGER: Inhibition of human G-402 cell growth in a cell viability assay.

HCC1419 = type: functional, cell-based; details: Homo sapiens
Description: SANGER: Inhibition of human HCC1419 cell growth in a cell viability assay.

HCC38 = type: functional, cell-based; details: Homo sapiens
Description: SANGER: Inhibition of human HCC38 cell growth in a cell viability assay.

HCT-116 = type: functional, cell-based; details: Homo sapiens
Description: SANGER: Inhibition of human HCT-116 cell growth in a cell viability assay.

HOS = type: functional, cell-based; details: Homo sapiens
Description: SANGER: Inhibition of human HOS cell growth in a cell viability assay.

HT-1376 = type: functional, cell-based; details: Homo sapiens
Description: SANGER: Inhibition of human HT-1376 cell growth in a cell viability assay.

HuO-3N1 = type: functional, cell-based; details: Homo sapiens
Description: SANGER: Inhibition of human HuO-3N1 cell growth in a cell viability assay.

IGROV-1 = type: functional, cell-based; details: Homo sapiens
Description: SANGER: Inhibition of human IGROV-1 cell growth in a cell viability assay.

LB373-MEL-D = type: functional, cell-based, Homo sapiens; details: Homo sapiens, LB373-MEL-D
Description: SANGER: Inhibition of human LB373-MEL-D cell growth in a cell viability assay.

MC-IXC = type: functional, cell-based; details: Homo sapiens
Description: SANGER: Inhibition of human MC-IXC cell growth in a cell viability assay.

MDA-MB-453 = type: functional, cell-based; details: Homo sapiens
Description: SANGER: Inhibition of human MDA-MB-453 cell growth in a cell viability assay.

MKN-7 = type: functional, cell-based; details: Homo sapiens
Description: SANGER: Inhibition of human MKN7 cell growth in a cell viability assay.

NB17 = type: functional, cell-based, Homo sapiens; details: Homo sapiens, NB17
Description: SANGER: Inhibition of human NB17 cell growth in a cell viability assay.

NCI-H2052 = type: functional, cell-based; details: Homo sapiens
Description: SANGER: Inhibition of human NCI-H2052 cell growth in a cell viability assay.

NCI-H2405 = type: functional, cell-based; details: Homo sapiens
Description: SANGER: Inhibition of human NCI-H2405 cell growth in a cell viability assay.

NCI-H2452 = type: functional, cell-based; details: Homo sapiens
Description: SANGER: Inhibition of human NCI-H2452 cell growth in a cell viability assay.

NCI-H28 = type: functional, cell-based; details: Homo sapiens
Description: SANGER: Inhibition of human NCI-H28 cell growth in a cell viability assay.

NCI-H441 = type: functional, cell-based; details: Homo sapiens
Description: SANGER: Inhibition of human NCI-H441 cell growth in a cell viability assay.

NCI-H510A = type: functional, cell-based, Homo sapiens; details: Homo sapiens, NCI-H510A
Description: SANGER: Inhibition of human NCI-H510A cell growth in a cell viability assay.

NCI-H596 = type: functional, cell-based; details: Homo sapiens
Description: SANGER: Inhibition of human NCI-H596 cell growth in a cell viability assay.

NCI-H630 = type: functional, cell-based; details: Homo sapiens
Description: SANGER: Inhibition of human NCI-H630 cell growth in a cell viability assay.

OAW-28 = type: functional, cell-based; details: Homo sapiens
Description: SANGER: Inhibition of human OAW-28 cell growth in a cell viability assay.

OAW-42 = type: functional, cell-based; details: Homo sapiens
Description: SANGER: Inhibition of human OAW-42 cell growth in a cell viability assay.

RPMI-7951 = type: functional, cell-based; details: Homo sapiens
Description: SANGER: Inhibition of human RPMI-7951 cell growth in a cell viability assay.

SCC-9 = type: functional, cell-based; details: Homo sapiens
Description: SANGER: Inhibition of human SCC-9 cell growth in a cell viability assay.

SK-OV-3 = type: functional, cell-based; details: Homo sapiens
Description: SANGER: Inhibition of human SK-OV-3 cell growth in a cell viability assay.

SN12C = type: functional, cell-based; details: Homo sapiens
Description: SANGER: Inhibition of human SN12C cell growth in a cell viability assay.

SW1463 = type: functional, cell-based; details: Homo sapiens
Description: SANGER: Inhibition of human SW1463 cell growth in a cell viability assay.

SiHa = type: functional, cell-based; details: Homo sapiens
Description: SANGER: Inhibition of human SiHa cell growth in a cell viability assay.

A204 = type: functional, cell-based; details: Homo sapiens
Description: SANGER: Inhibition of human A204 cell growth in a cell viability assay.

AU565 = type: functional, cell-based; details: Homo sapiens
Description: SANGER: Inhibition of human AU565 cell growth in a cell viability assay.

BCPAP = type: functional, cell-based; details: Homo sapiens
Description: SANGER: Inhibition of human BCPAP cell growth in a cell viability assay.

BHY = type: functional, cell-based; details: Homo sapiens
Description: SANGER: Inhibition of human BHY cell growth in a cell viability assay.

BT-20 = type: functional, cell-based; details: Homo sapiens
Description: SANGER: Inhibition of human BT-20 cell growth in a cell viability assay.

C-33-A = type: functional, cell-based; details: Homo sapiens
Description: SANGER: Inhibition of human C-33-A cell growth in a cell viability assay.

C32 = type: functional, cell-based; details: Homo sapiens
Description: SANGER: Inhibition of human C32 cell growth in a cell viability assay.

CAL-39 = type: functional, cell-based; details: Homo sapiens
Description: SANGER: Inhibition of human CAL-39 cell growth in a cell viability assay.

UMC-11 = type: functional, cell-based; details: Homo sapiens
Description: SANGER: Inhibition of human UMC-11 cell growth in a cell viability assay.

## NC(=O)Nc1cc(-c2cccc(F)c2)sc1C(=O)N[C@H]1CCCNC1 [AZD-7762]
DMS-273
  IC50: 755 nM
DOK
  IC50: > 2000 nM
DoTc2-4510
  IC50: 782 nM
EC-GI-10
  IC50: 1780 nM
EFO-27
  IC50: 430 nM
G-361
  IC50: 387 nM
G-402
  IC50: 64.6 nM
HCC1419
  IC50: > 2000 nM
HCC38
  IC50: 750 nM
HCT-116
  IC50: 1420 nM
HOS
  IC50: 880 nM
HT-1376
  IC50: > 2000 nM
HuO-3N1
  IC50: 941 nM
IGROV-1
  IC50: 244 nM
LB373-MEL-D
  IC50: > 2000 nM
MC-IXC
  IC50: 128 nM
MDA-MB-453
  IC50: > 2000 nM
MKN-7
  IC50: 1210 nM
NB17
  IC50: 158 nM
NCI-H2052
  IC50: > 2000 nM
NCI-H2405
  IC50: > 2000 nM
NCI-H2452
  IC50: 936 nM
NCI-H28
  IC50: 297 nM
NCI-H441
  IC50: > 2000 nM
NCI-H510A
  IC50: 246 nM
NCI-H596
  IC50: > 2000 nM
NCI-H630
  IC50: 1790 nM
OAW-28
  IC50: 1850 nM
OAW-42
  IC50: 937 nM
RPMI-7951
  IC50: 231 nM
SCC-9
  IC50: 1990 nM
SK-OV-3
  IC50: > 2000 nM
SN12C
  IC50: 1120 nM
SW1463
  IC50: > 2000 nM
SiHa
  IC50: 859 nM
A204
  IC50: 8.56 nM
AU565
  IC50: 824 nM
BCPAP
  IC50: 1890 nM
BHY
  IC50: 688 nM
BT-20
  IC50: 1720 nM
C-33-A
  IC50: 862 nM
C32
  IC50: 347 nM
CAL-39
  IC50: > 2000 nM
UMC-11
  IC50: 1770 nM

## Cc1ccc(-n2nc(C(C)(C)C)cc2NC(=O)Nc2ccc(OCCN3CCOCC3)c3ccccc23)cc1 [DORAMAPIMOD]
DMS-273
  IC50: > 10000 nM
DOK
  IC50: > 10000 nM
DoTc2-4510
  IC50: > 10000 nM
EFO-27
  IC50: > 10000 nM
G-361
  IC50: > 10000 nM
G-402
  IC50: > 10000 nM
HCC1419
  IC50: > 10000 nM
HCC38
  IC50: > 10000 nM
HCT-116
  IC50: > 10000 nM
HOS
  IC50: > 10000 nM
HT-1376
  IC50: > 10000 nM
HuO-3N1
  IC50: > 10000 nM
IGROV-1
  IC50: > 10000 nM
LB373-MEL-D
  IC50: > 10000 nM
MC-IXC
  IC50: > 10000 nM
MDA-MB-453
  IC50: > 10000 nM
MKN-7
  IC50: > 10000 nM
NB17
  IC50: > 10000 nM
NCI-H2052
  IC50: > 10000 nM
NCI-H2405
  IC50: > 10000 nM
NCI-H2452
  IC50: > 10000 nM
NCI-H28
  IC50: > 10000 nM
NCI-H441
  IC50: > 10000 nM
NCI-H596
  IC50: > 10000 nM
NCI-H630
  IC50: > 10000 nM
OAW-28
  IC50: > 10000 nM
OAW-42
  IC50: > 10000 nM
RPMI-7951
  IC50: > 10000 nM
SCC-9
  IC50: > 10000 nM
SK-OV-3
  IC50: > 10000 nM
SN12C
  IC50: > 10000 nM
SW1463
  IC50: > 10000 nM
SiHa
  IC50: > 10000 nM
A204
  IC50: > 10000 nM
AU565
  IC50: > 10000 nM
BCPAP
  IC50: > 10000 nM
BHY
  IC50: > 10000 nM
BT-20
  IC50: > 10000 nM
C-33-A
  IC50: > 10000 nM
C32
  IC50: > 10000 nM
CAL-39
  IC50: > 10000 nM
UMC-11
  IC50: > 10000 nM

## CN(NC(=O)CC(=O)NN(C)C(=S)c1ccccc1)C(=S)c1ccccc1 [ELESCLOMOL]
DMS-273
  IC50: 7.06 nM
DOK
  IC50: 17.9 nM
DoTc2-4510
  IC50: > 200 nM
EC-GI-10
  IC50: 44.6 nM
EFO-27
  IC50: 7.72 nM
G-361
  IC50: 27.5 nM
G-402
  IC50: 16.2 nM
HCC1419
  IC50: 19.6 nM
HCC38
  IC50: > 200 nM
HCT-116
  IC50: 40 nM
HOS
  IC50: 2.53 nM
HT-1376
  IC50: > 200 nM
HuO-3N1
  IC50: 24 nM
IGROV-1
  IC50: 104 nM
LB373-MEL-D
  IC50: 14.7 nM
MC-IXC
  IC50: 7.17 nM
MDA-MB-453
  IC50: 34.7 nM
MKN-7
  IC50: 61 nM
NB17
  IC50: 8.94 nM
NCI-H2052
  IC50: 63.3 nM
NCI-H2405
  IC50: 51 nM
NCI-H2452
  IC50: 21.7 nM
NCI-H28
  IC50: 13.7 nM
NCI-H441
  IC50: > 200 nM
NCI-H510A
  IC50: 12.4 nM
NCI-H596
  IC50: 44.8 nM
NCI-H630
  IC50: > 200 nM
OAW-28
  IC50: > 200 nM
OAW-42
  IC50: 81.6 nM
RPMI-7951
  IC50: 36.6 nM
SCC-9
  IC50: 121 nM
SK-OV-3
  IC50: 3.75 nM
SN12C
  IC50: 28.4 nM
SW1463
  IC50: > 200 nM
SiHa
  IC50: 31.1 nM
A204
  IC50: 8.85 nM
AU565
  IC50: 59.1 nM
BCPAP
  IC50: 1.34 nM
BHY
  IC50: 107 nM
BT-20
  IC50: 35.2 nM
C-33-A
  IC50: 7.58 nM
C32
  IC50: 26.3 nM
CAL-39
  IC50: 13.3 nM
UMC-11
  IC50: > 200 nM

## CC1=C(/C=C/C(C)=C/C=C/C(C)=C/C(=O)O)C(C)(C)CCC1 [TRETINOIN]
DMS-273
  IC50: > 10000 nM
DOK
  IC50: > 10000 nM
DoTc2-4510
  IC50: > 10000 nM
EC-GI-10
  IC50: > 10000 nM
EFO-27
  IC50: > 10000 nM
G-361
  IC50: > 10000 nM
G-402
  IC50: > 10000 nM
HCC1419
  IC50: > 10000 nM
HCC38
  IC50: > 10000 nM
HCT-116
  IC50: > 10000 nM
HOS
  IC50: > 10000 nM
HT-1376
  IC50: > 10000 nM
HuO-3N1
  IC50: 832 nM
IGROV-1
  IC50: > 10000 nM
LB373-MEL-D
  IC50: > 10000 nM
MC-IXC
  IC50: 154 nM
MDA-MB-453
  IC50: > 10000 nM
MKN-7
  IC50: > 10000 nM
NB17
  IC50: > 10000 nM
NCI-H2052
  IC50: > 10000 nM
NCI-H2405
  IC50: > 10000 nM
NCI-H2452
  IC50: > 10000 nM
NCI-H28
  IC50: > 10000 nM
NCI-H441
  IC50: > 10000 nM
NCI-H510A
  IC50: > 10000 nM
NCI-H596
  IC50: > 10000 nM
NCI-H630
  IC50: > 10000 nM
OAW-28
  IC50: > 10000 nM
OAW-42
  IC50: > 10000 nM
RPMI-7951
  IC50: > 10000 nM
SCC-9
  IC50: > 10000 nM
SK-OV-3
  IC50: > 10000 nM
SN12C
  IC50: > 10000 nM
SW1463
  IC50: > 10000 nM
SiHa
  IC50: > 10000 nM
A204
  IC50: > 10000 nM
AU565
  IC50: > 10000 nM
BCPAP
  IC50: > 10000 nM
BHY
  IC50: > 10000 nM
BT-20
  IC50: > 10000 nM
C-33-A
  IC50: > 10000 nM
C32
  IC50: > 10000 nM
CAL-39
  IC50: > 10000 nM
UMC-11
  IC50: > 10000 nM

## NC(=O)c1ccc(N(C(N)=O)c2c(F)cccc2F)nc1-c1ccc(F)cc1F [VX-702]
DMS-273
  IC50: > 2000 nM
DOK
  IC50: > 2000 nM
DoTc2-4510
  IC50: > 2000 nM
EC-GI-10
  IC50: > 2000 nM
EFO-27
  IC50: > 2000 nM
G-361
  IC50: 1500 nM
G-402
  IC50: > 2000 nM
HCC1419
  IC50: > 2000 nM
HCC38
  IC50: > 2000 nM
HCT-116
  IC50: > 2000 nM
HOS
  IC50: > 2000 nM
HT-1376
  IC50: > 2000 nM
HuO-3N1
  IC50: > 2000 nM
IGROV-1
  IC50: > 2000 nM
LB373-MEL-D
  IC50: > 2000 nM
MC-IXC
  IC50: > 2000 nM
MDA-MB-453
  IC50: > 2000 nM
MKN-7
  IC50: > 2000 nM
NB17
  IC50: > 2000 nM
NCI-H2052
  IC50: > 2000 nM
NCI-H2405
  IC50: > 2000 nM
NCI-H2452
  IC50: > 2000 nM
NCI-H28
  IC50: > 2000 nM
NCI-H441
  IC50: > 2000 nM
NCI-H510A
  IC50: > 2000 nM
NCI-H596
  IC50: > 2000 nM
NCI-H630
  IC50: > 2000 nM
OAW-28
  IC50: > 2000 nM
OAW-42
  IC50: > 2000 nM
RPMI-7951
  IC50: > 2000 nM
SCC-9
  IC50: > 2000 nM
SK-OV-3
  IC50: > 2000 nM
SN12C
  IC50: > 2000 nM
SW1463
  IC50: > 2000 nM
SiHa
  IC50: > 2000 nM
A204
  IC50: > 2000 nM
AU565
  IC50: > 2000 nM
BCPAP
  IC50: > 2000 nM
BHY
  IC50: > 2000 nM
BT-20
  IC50: > 2000 nM
C-33-A
  IC50: > 2000 nM
C32
  IC50: > 2000 nM
CAL-39
  IC50: > 2000 nM
UMC-11
  IC50: > 2000 nM
